What was measured:
[1] = CTG assay: cytotoxicity in CellTiter-Glo Luminescent Cell Viability Assay; type: cell-based; conditions: MT4-GFP cells, 10% normal human serum, 48 h incubation
Method: Assessing Cytotoxicity in CellTiter-Glo Luminescent Cell Viability Assay (CTG).
MT4-GFP cells were seeded in RPMI 1640 supplemented with 10% fetal bovine serum, 100 U/mL penicillin/streptomycin overnight at 37° C./5% CO2/90% relative humidity. Cells were then washed and resuspended in RPMI 1640 containing 10% normal human serum at a density of 0.8×10^5 cells/mL. Compound plates were prepared by dispensing compounds dissolved in DMSO into wells of 384 well solid black plates (Corning 3571) using an ECHO acoustic dispenser (0.2 μl/well). […] Controls included DMSO. Cells were added (50 μL/well) to compound plates and were maintained at 37° C./5% CO2/90% relative humidity. CTG reagent (Promega, G7573) was added to the cell plates after 48 h incubation according to the manufacturer's description. Luminescence signals were recorded on EnVision plate reader (PerkinElmer). CC50s were determined by non-linear 4-parameter curve fitting. The resulting data is shown in Table 3 with the marketed HIV nucleoside reverse transcriptase inhibitor AZT (azidothymidine, zidovudine) included as a control.

[2] = test system: HIV-1 (H9IIIB virus) replication in MT4-GFP cells; assay: Viking assay: antiviral potency in a multiple round HIV-1 infection assay; type: cell-based; conditions: Human immunodeficiency virus 1; 10% normal human serum; MT4-GFP cells infected with H9IIIB virus; inhibition of reproductive ratio R0; read-out: Viking, IC50 (10%NHS)
Method: Assessing antiviral potency in a multiple round HIV-1 infection assay. HIV-1 replication was monitored using MT4-gag-GFP clone D3 (hereafter designate MT4-GFP), which are MT-4 cells modified to harbor a GFP reporter gene, the expression of which is dependent on the HIV-1 expressed proteins tat and rev. Productive infection of an MT4-GFP cell with HIV-1 results in GFP expression approximately 24 h post-infection.
MT4-GFP cells were maintained at 37° C./5% CO2/90% relative humidity in RPMI 1640 supplemented with 10% fetal bovine serum, 100 U/mL penicillin/streptomycin, and 400 μg/mL G418 to maintain the reporter gene. For infections, MT4-GFP cells were placed in the same medium lacking G418 and infected overnight with H9IIIB virus at an approximate multiplicity of infection of 0.01 in the same incubation conditions. Cells were then washed and re-suspended in either RPMI 1640 containing 10% or 50% normal human serum at 1.6×10^5 cells/mL. Compound plates were prepared by dispensing compounds dissolved in DMSO into wells of 384 well poly D lysine-coated plates (0.2 μl/well) using an ECHO acoustic dispenser. Each compound was tested in a 10 point serial 3-fold dilution (typical final concentrations: 8.4 μM-0.43 nM). Controls included no inhibitor (DMSO only) and a combination of three antiviral agents (efavirenz, indinavir, and an integrase strand transfer inhibitor at final concentrations of 4 μM each). Cells were added (50 μL/well) to compound plates and the infected cells were maintained at 37° C./5% CO2/90% relative humidity.
Infected cells were quantified at two time points, ˜48 h and ˜72 h post-infection, by counting the number of green cells in each well using an Acumen eX3 scanner. The increase in the number of green cells over ˜24 h period gives the reproductive ratio, R0, which is typically 5-15 and has been shown experimentally to be in logarithmic phase (data not shown). Inhibition of R0 is calculated for each well, and IC50s determined by non-linear 4-parameter curve fitting.

Compound | CC50 at 48 h [1] [nM] | IC50 [2] [nM]
Cc1cn([C@H]2C[C@H](N=[N+]=[N-])[C@@H](CO)O2)c(=O)[nH]c1=O [AZT, 3′-azido-3′-deoxythymidine, reference compound] | > 8400 | 37
[2H][C@@]1(O)C[C@H](n2cc(F)c3c(N)ncnc32)O[C@]1(C#C)CO [Example 1] | > 42000 | 2310
[2H][C@]1(O)C[C@H](n2cc(F)c3c(N)ncnc32)O[C@]1(C#C)CO [Example 2, (2R,3S,5R)-5-{4-amino-5-fluoro-7H-pyrrolo[2,3-d]pyrimidin-7-yl}-2-ethynyl-2-(hydroxymethyl)(3-^2H)oxolan-3-ol] | 31900 | 3.1
[2H][C@]1(O)C[C@H](n2cnc3c(N)nc(F)nc32)O[C@]1(C#C)CO [Example 3, (2R,3S,5R)-5-(6-amino-2-fluoro-9H-purin-9-yl)-2-ethynyl-2-(hydroxymethyl)(3-^2H)oxolan-3-ol] | > 42000 | 1.2
[2H][C@@]1(O)C[C@H](n2cnc3c(N)nc(F)nc32)O[C@]1(C#C)CO [Example 4, (2R,3R,5R)-5-(6-amino-2-fluoro-9H-purin-9-yl)-2-ethynyl-2-(hydroxymethyl)(3-^2H)oxolan-3-ol] | > 42000 | 1190
[2H][C@@]1(O)C[C@H](n2ccc3c(N)nc(Cl)nc32)O[C@]1(C#C)CO [Example 5, (2R,3R,5R)-5-(4-amino-2-chloro-7H-pyrrolo[2,3-d]pyrimidin-7-yl)-2-ethynyl(3-^2H)-2-(hydroxymethyl)-tetrahydrofuran-3-ol] | > 42000 | > 42000
[2H][C@]1(O)C[C@H](n2ccc3c(N)nc(Cl)nc32)O[C@]1(C#C)CO [Example 6, (2R,3S,5R)-5-(4-amino-2-chloro-7H-pyrrolo[2,3-d]pyrimidin-7-yl)-2-ethynyl(3-^2H)-2-(hydroxymethyl)-tetrahydrofuran-3-ol] | > 42000 | 10.6
[2H]C(O)[C@@]1(C#C)O[C@@H](n2cnc3c(N)nc(F)nc32)C[C@@H]1O (stereo partly drawn) [Example 7, [(2R,3S,5R)-5-(6-amino-2-fluoro-9H-purin-9-yl)-3-oxhydryl-2-ethynyloxolan-2-yl](^2H)-methanol] | > 42000 | 0.7
[2H]C([2H])(O)[C@@]1(C#C)O[C@@H](n2cnc3c(N)nc(F)nc32)C[C@@H]1O [Example 8, [(2R,3S,5R)-5-(6-amino-2-fluoro-9H-purin-9-yl)-3-oxhydryl-2-ethynyloxolan-2-yl](^2H2)methanol] | > 42000 | 1.1
[2H]C#C[C@]1(CO)O[C@@H](n2cnc3c(N)nc(F)nc32)C[C@@H]1O [Example 9, (2R,3S,5R)-5-(6-amino-2-fluoro-9H-purin-9-yl)-2-(^2H)ethynyl-2-(hydroxymethyl)oxolan-3-ol] | > 42000 | 0.6
[2H]C(O)[C@@]1(C#C)O[C@@H](n2ccc3c(N)nc(Cl)nc32)C[C@@H]1O (stereo partly drawn) [Example 10, (2R,3S,5R)-5-{4-amino-2-chloro-7H-pyrrolo[2,3-d]pyrimidin-7-yl}-2-ethynyl-2-[hydroxy(^2H)methyl]oxolan-3-ol] | > 42000 | 5.5
[2H]C([2H])(O)[C@@]1(C#C)O[C@@H](n2ccc3c(N)nc(Cl)nc32)C[C@@H]1O [Example 11, (2R,3S,5R)-5-{4-amino-2-chloro-7H-pyrrolo[2,3-d]pyrimidin-7-yl}-2-ethynyl-2-[hydroxy(^2H2)methyl]oxolan-3-ol] | > 42000 | 5.6
[2H]C#C[C@]1(CO)O[C@@H](n2ccc3c(N)nc(Cl)nc32)C[C@@H]1O [Example 12, (2R,3S,5R)-5-{4-amino-2-chloro-7H-pyrrolo[2,3-d]pyrimidin-7-yl}-2-(^2H)ethynyl-2-(hydroxymethyl)oxolan-3-ol] | > 42000 | 4.6
[2H][C@]1(n2cnc3c(N)nc(F)nc32)C[C@H](O)[C@@](C#C)(CO)O1 [Example 13, (2R,3S,5R)-5-(6-amino-2-fluoro-9H-purin-9-yl)-2-ethynyl-2-(hydroxymethyl)tetrahydrofuran-5-^2H-3-ol] | > 42000 | 0.2
[2H][C@]1(n2ccc3c(N)nc(Cl)nc32)C[C@H](O)[C@@](C#C)(CO)O1 [Example 14, (2R,3S,5R)-5-(4-amino-2-chloro-7H-pyrrolo[2,3-d]pyrimidin-7-yl)-2-ethynyl-2-(hydroxymethyl)tetrahydrofuran-5-^2H-3-ol] | > 42000 | 0.3
